Results as given in patent US8871796B2, “Diaryl ether derivatives as notch sparing gamma secretase inhibitors” (Merck Sharp & Dohme Corp., priority 2009, dated 2014).
Read-outs that look alike come from different tables or passages of the source.

Assay: APP processing: AlphaLisa assay of secreted Aβ40 and Aβ42 from SP4CT cells
Assay type: cell-based
Conditions: Homo sapiens, SH-SY5Y cells expressing amyloid β protein (SP4CT cells)
Method: APP Processing (Assay Quantitates Secreted Aβ Analytes from Cell Lines):
The effect of compounds on the abundance of Aβ40 and Aβ42 peptides generated from SH-SY5Y cells expressing amyloid β protein (SP4CT cells) are determined by an AlphaLisa™ assay. Analogous to an ELISA assay, generation of […] AlphaLisa™ assay requires “donor” and “acceptor” beads to be brought in close proximity by specific antibody recognition of either Aβ40 or Aβ42 peptides. The assay is accomplished by removing media from compound-treated SP4CT cells to two different microplates, followed by the addition of donor beads conjugated with streptavidin binding a biotinylated anti-amyloid β monocolonal antibody (clone 4G8). Acceptor beads directly conjugated with anti-Aβ40 monoclonal antibody (G210) are added to one microplate and anti-Aβ42 monoclonal antibody (12F4) acceptor beads were added to the other. Abundance of Aβ40 and Aβ42 is directly proportional to the luminescent signal generated following excitation of donor beads by laser light.

[1] = read-out: IC50, inhibition of production of Aβ40 peptide
[2] = read-out: IC50, inhibition of production of Aβ42 peptide

Row | Compound | IC50 [1] [nM] | IC50 [2] [nM]
1 | CCCNS(=O)(=O)NC(C)(C)c1cccc(-c2cc(Oc3ccc(C(F)(F)F)cc3)n(CC)n2)c1 [Example 8, N-[1-(3-{1-ethyl-5-[4-(trifluoromethyl)phenoxy]-1H-pyrazol-3-yl}phenyl)-1-methylethyl]-N′-propylsulfamide] | < 200 | < 200
2 | CCn1nc(-c2cccc(C(C)(C)NS(=O)(=O)CC(F)(F)F)c2)cc1Oc1ccc(C(F)(F)F)cc1 [Example 1, N-[1-(3-{1-ethyl-5-[4-(trifluoromethyl)phenoxy]-1H-pyrazol-3-yl}phenyl)-1-methylethyl]-2,2,2-trifluoroethanesulfonamide] | < 200 | < 200
3 | CCn1nc(-c2cccc(C3(NS(=O)(=O)NC4CCCC4)CC3)c2)cc1Oc1ccc(C(F)(F)F)cc1 [Example 35, N-cyclopentyl-N′-[1-(3-{1-ethyl-5-[4-(trifluoromethyl)phenoxy]-1H-pyrazol-3-yl}phenyl)cyclopropyl] sulfamide] | < 200 | < 200
4 | CCCNS(=O)(=O)NC1(c2cccc(-c3cc(Oc4ccc(C(F)(F)F)cc4)nn3CC)c2)CC1 [Example 33, N-[1-(3-{1-ethyl-3-[4-(trifluoromethyl)phenoxy]-1H-pyrazol-5-yl}phenyl)cyclopropyl]-N′-propylsulfamide] | < 200 | < 200
5 | CCn1nc(Oc2ccc(C(F)(F)F)cc2)cc1-c1cccc(C(C)(C)NS(=O)(=O)NCC(C)C)c1 [Example 17, N-[1-(3-{1-ethyl-3-[4-(trifluoromethyl)phenoxy]-1H-pyrazol-5-yl}phenyl)-1-methylethyl]-N′-isobutylsulfamide] | < 200 | < 200

Other lines, results leading:

Row | IC50 [1] [nM] | IC50 [2] [nM] | Compound
6 | < 200 | < 200 | CCn1nc(-c2cccc(C(C)(C)NS(=O)(=O)CC(F)(F)F)c2)cc1Oc1ccc(-c2cnco2)cc1 [Example 76, N-[1-(3-{1-ethyl-5-[4-(1,3-oxazol-5-yl)phenoxy]-1H-pyrazol-3-yl}phenyl)-1-methylethyl]-2,2,2-trifluoroethanesulfonamide]
7 | < 200 | < 200 | O=S(=O)(CC(F)(F)F)NC1(c2cccc(-c3cc(Oc4ccc(C(F)(F)F)cc4)n(CC4CCCO4)n3)c2)COC1 (stereo not shown) [Example 138, N-(3-{3-[5-(4-trifluoromethylphenoxy)-1-(tetrahydrofuran-2-ylmethyl)-1H-pyrazol-3-yl]phenyl}oxetan-3-yl)-2,2,2-trifluoroethanesulfonamide]
8 | < 200 | < 200 | CCn1nc(-c2cccc(C(C)(C)NS(=O)(=O)CC(F)(F)F)c2)cc1Oc1ccc(CNc2nccs2)cc1 [Example 86, N-{1-[3-(1-ethyl-5-{4-[(1,3-thiazol-2-ylamino)methyl]phenoxy}-1H-pyrazol-3-yl)phenyl]-1-methylethyl}-2,2,2-trifluoroethanesulfonamide]
9 | < 200 | < 200 | CCn1nc(-c2cccc(C3(NS(=O)(=O)NC)CC3)c2)cc1Oc1ccc(C(F)(F)F)cc1 [Example 48, N-[1-(3-{1-ethyl-5-[4-(trifluoromethyl)phenoxy]-1H-pyrazol-3-yl}phenyl)cyclopropyl]-N′-methylsulfamide]
10 | < 200 | < 200 | CCn1nc(-c2cccc(C3(NS(=O)(=O)CC(F)(F)F)CC3)c2)cc1Oc1ccc(C(F)(F)F)cn1 [Example 44, N-{1-[3-(1-ethyl-5-{[5-(trifluoromethyl)pyridin-2-yl]oxy}-1H-pyrazol-3-yl)phenyl]cyclopropyl}-2,2,2-trifluoroethanesulfonamide]
11 | < 200 | < 200 | CCn1nc(-c2cccc(C(C)(C)NS(=O)(=O)CC(F)(F)F)c2)cc1Oc1ccc(C(F)F)cc1 [Example 64, N-[1-(3-{5-[4-(difluoromethyl)phenoxy]-1-ethyl-1H-pyrazol-3-yl}phenyl)-1-methylethyl]-2,2,2-trifluoroethanesulfonamide]
